From ChEMBL document CHEMBL3286383, “4-Benzofuranyloxynicotinamide derivatives are novel potent and orally available TGR5 agonists” (Eur J Med Chem, 2014)

System: Mus musculus
Test: Gallbladder toxicity in ICR mouse assessed as increase of gallbladder volume at 50 mg/kg, po after 3 hrs
Type: organism-based
Design: dose 50 mg/kg, route oral
Settings: in vivo; call rule not given here

| SMILES | Activity |
| --- | --- |
| Cc1coc2cc(Cl)c(Oc3ccncc3C(=O)N3CCN(C4CC4)c4ccccc43)cc12 | 97% |

System: not listed separately
Test: Apparent permeability of the compound from basolateral to apical side of human Caco2 cells up to 95 mins by LC-MS/MS analysis
Settings: Caco-2

| SMILES | Papp B→A at 95 min |
| --- | --- |
| CCOC(=O)CNC(=O)/C=C/c1oc2ccc(Cl)c(Oc3ccncc3C(=O)N3CCN(C4CC4)c4ccccc43)c2c1C | 0.5 ×10⁻⁶ cm/s |
| Cc1coc2cc(Cl)c(Oc3ccncc3C(=O)N3CCN(C4CC4)c4ccccc43)cc12 | 1.5 ×10⁻⁶ cm/s |

System: Nucleic Acid
Test: Ratio of drug level in ICR mouse bile at 50 mg/kg, po after 3 hrs to EC50 for mouse TGR5 expressed in HEK293 cells
Type: organism-based
Design: dose 50 mg/kg
Settings: not given

| SMILES | Ratio |
| --- | --- |
| Cc1coc2cc(Cl)c(Oc3ccncc3C(=O)N3CCN(C4CC4)c4ccccc43)cc12 | 1030 |

System: not listed separately
Test: Drug level in ICR mouse gallbladder at 50 mg/kg, po after 3 hrs by LC-MS/MS analysis
Type: ADME, organism-based, Gall bladder
Design: dose 50 mg/kg, route oral
Settings: read-out: Drug uptake

| SMILES | concentration at 3 h |
| --- | --- |
| Cc1coc2cc(Cl)c(Oc3ccncc3C(=O)N3CCN(C4CC4)c4ccccc43)cc12 | 410 ng/mL |

Biological target: T1, G-protein coupled bile acid receptor 1 (Homo sapiens, UniProt Q8TDU6)
T1 sequence (Q8TDU6 whole entry): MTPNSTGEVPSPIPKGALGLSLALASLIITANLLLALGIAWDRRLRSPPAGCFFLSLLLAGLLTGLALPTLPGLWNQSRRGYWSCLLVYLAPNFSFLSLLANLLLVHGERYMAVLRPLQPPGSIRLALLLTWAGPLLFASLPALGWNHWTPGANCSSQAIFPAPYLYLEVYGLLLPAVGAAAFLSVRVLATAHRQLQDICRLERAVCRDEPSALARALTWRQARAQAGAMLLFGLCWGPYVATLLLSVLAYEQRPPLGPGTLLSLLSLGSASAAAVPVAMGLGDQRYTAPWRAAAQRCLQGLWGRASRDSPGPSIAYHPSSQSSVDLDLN
Test: Agonist activity at human TGR5 expressed in HEK293 cells co-expressing CRE after 5.5 hrs by luciferase reporter gene assay
Type: functional, cell-based
Settings: not given

| SMILES | EC50 |
| --- | --- |
| CCOC(=O)CNC(=O)c1coc2cc(Cl)c(Oc3ccncc3C(=O)N3CCN(C4CC4)c4ccccc43)cc12 | 1400 nM |
| O=C(c1cnccc1Oc1ccc2sccc2c1)N1CCN(C2CC2)c2ccccc21 | 16 nM |
| O=C(O)Cc1coc2cc(Cl)c(Oc3ccncc3C(=O)N3CCN(C4CC4)c4ccccc43)cc12 | 1360 nM |
| CCOC(=O)c1oc2cc(Cl)c(Oc3ccncc3C(=O)N3CCN(C4CC4)c4ccccc43)cc2c1C | 38 nM |
| Cc1noc2cc(Oc3ccncc3C(=O)N3CCN(C4CC4)c4ccccc43)ccc12 | 240 nM |
| O=C(c1cnccc1Oc1ccc2cc[nH]c2c1)N1CCN(C2CC2)c2ccccc21 | 162 nM |
| O=C(c1cnccc1Oc1ccc2cccnc2c1)N1CCN(C2CC2)c2ccccc21 | 59 nM |
| O=C(c1cnccc1Oc1cccc2[nH]ccc12)N1CCN(C2CC2)c2ccccc21 | 148 nM |
| O=C(O)CCc1coc2cc(Cl)c(Oc3ccncc3C(=O)N3CCN(C4CC4)c4ccccc43)cc12 | 675 nM |
| Cc1c(/C=C/C(=O)O)oc2ccc(Cl)c(Oc3ccncc3C(=O)N3CCN(C4CC4)c4ccccc43)c12 | 25 nM |
| O=C(c1cnccc1Oc1cccc2cccnc12)N1CCN(C2CC2)c2ccccc21 | 178 nM |
| CCOC(=O)CNC(=O)/C=C/c1oc2ccc(Cl)c(Oc3ccncc3C(=O)N3CCN(C4CC4)c4ccccc43)c2c1C | 8.5 nM |
| O=C(c1cnccc1Oc1ccc2ncccc2c1)N1CCN(C2CC2)c2ccccc21 | 64 nM |
| O=C(c1cnccc1Oc1cc2ccoc2cc1Cl)N1CCN(C2CC2)c2ccccc21 | 1.4 nM |
| CCOC(=O)c1coc2cc(Cl)c(Oc3ccncc3C(=O)N3CCN(C4CC4)c4ccccc43)cc12 | 1.7 nM |
| Cc1c(CCC(=O)O)oc2ccc(Cl)c(Oc3ccncc3C(=O)N3CCN(C4CC4)c4ccccc43)c12 | 35 nM |
| O=C(c1cnccc1Oc1ccc2occc2c1)N1CCN(C2CC2)c2ccccc21 | 10.7 nM |
| O=C(c1cnccc1Oc1cccc2ncccc12)N1CCN(C2CC2)c2ccccc21 | 40 nM |

| SMILES | EC50 |
| --- | --- |
| CCOC(=O)CNC(=O)Cc1coc2cc(Cl)c(Oc3ccncc3C(=O)N3CCN(C4CC4)c4ccccc43)cc12 | 520 nM |
| O=C(c1cnccc1Oc1ccc2ncsc2c1)N1CCN(C2CC2)c2ccccc21 | 15 nM |
| CCOC(=O)CNC(=O)c1oc2cc(Cl)c(Oc3ccncc3C(=O)N3CCN(C4CC4)c4ccccc43)cc2c1C | 78 nM |
| CCOC(=O)CNC(=O)CCc1coc2cc(Cl)c(Oc3ccncc3C(=O)N3CCN(C4CC4)c4ccccc43)cc12 | 119 nM |
| CCOC(=O)/C=C/c1oc2ccc(Cl)c(Oc3ccncc3C(=O)N3CCN(C4CC4)c4ccccc43)c2c1C | 8.9 nM |
| O=C(c1cnccc1Oc1ccc2ccccc2c1)N1CCN(C2CC2)c2ccccc21 | 41 nM |
| O=C(c1cnccc1Oc1ccc2ccoc2c1)N1CCN(C2CC2)c2ccccc21 | 25 nM |
| Cc1noc2ccc(Oc3ccncc3C(=O)N3CCN(C4CC4)c4ccccc43)cc12 | 1.5 nM |
| Cc1coc2cc(Cl)c(Oc3ccncc3C(=O)N3CCN(C4CC4)c4ccccc43)cc12 | 0.28 nM |
| Cc1c(Br)oc2cc(Cl)c(Oc3ccncc3C(=O)N3CCN(C4CC4)c4ccccc43)cc12 | 7.7 nM |
| CCOC(=O)CCc1oc2ccc(Cl)c(Oc3ccncc3C(=O)N3CCN(C4CC4)c4ccccc43)c2c1C | 18 nM |
| CCOC(=O)CNC(=O)CCc1oc2ccc(Cl)c(Oc3ccncc3C(=O)N3CCN(C4CC4)c4ccccc43)c2c1C | 30 nM |
| Cc1c(C(=O)O)oc2cc(Cl)c(Oc3ccncc3C(=O)N3CCN(C4CC4)c4ccccc43)cc12 | 63 nM |
| COC(=O)CCc1coc2cc(Cl)c(Oc3ccncc3C(=O)N3CCN(C4CC4)c4ccccc43)cc12 | 24 nM |
| O=C(c1cnccc1Oc1ccc2[nH]ccc2c1)N1CCN(C2CC2)c2ccccc21 | 1220 nM |
| O=C(c1cnccc1Oc1cccc2ccccc12)N1CCN(C2CC2)c2ccccc21 | 17 nM |
| Cc1coc2ccc(Oc3ccncc3C(=O)N3CCN(C4CC4)c4ccccc43)cc12 | 0.45 nM |
| CCOC(=O)Cc1coc2cc(Cl)c(Oc3ccncc3C(=O)N3CCN(C4CC4)c4ccccc43)cc12 | 5.2 nM |

Biological target: T2, G-protein coupled bile acid receptor 1 (Mus musculus, UniProt Q80SS6)
T2 sequence (Q80SS6 whole entry): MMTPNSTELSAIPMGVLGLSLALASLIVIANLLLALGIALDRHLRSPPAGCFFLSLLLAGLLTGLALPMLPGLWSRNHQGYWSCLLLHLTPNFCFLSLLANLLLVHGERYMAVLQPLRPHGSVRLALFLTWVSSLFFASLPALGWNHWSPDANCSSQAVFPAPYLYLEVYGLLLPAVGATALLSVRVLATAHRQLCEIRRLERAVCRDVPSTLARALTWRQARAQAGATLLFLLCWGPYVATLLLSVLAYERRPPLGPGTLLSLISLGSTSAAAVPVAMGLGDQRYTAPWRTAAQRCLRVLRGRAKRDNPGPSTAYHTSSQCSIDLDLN
Test: Agonist activity at mouse TGR5 expressed in HEK293 cells co-expressing CRE after 5.5 hrs by luciferase reporter gene assay
Type: functional, cell-based
Settings: not given

| SMILES | EC50 |
| --- | --- |
| O=C(c1cnccc1Oc1ccc2sccc2c1)N1CCN(C2CC2)c2ccccc21 | 52 nM |
| Cc1c(/C=C/C(=O)O)oc2ccc(Cl)c(Oc3ccncc3C(=O)N3CCN(C4CC4)c4ccccc43)c12 | 18 nM |
| CCOC(=O)CNC(=O)/C=C/c1oc2ccc(Cl)c(Oc3ccncc3C(=O)N3CCN(C4CC4)c4ccccc43)c2c1C | 6.1 nM |
| O=C(c1cnccc1Oc1cc2ccoc2cc1Cl)N1CCN(C2CC2)c2ccccc21 | 10 nM |
| CCOC(=O)c1coc2cc(Cl)c(Oc3ccncc3C(=O)N3CCN(C4CC4)c4ccccc43)cc12 | 39 nM |
| Cc1c(CCC(=O)O)oc2ccc(Cl)c(Oc3ccncc3C(=O)N3CCN(C4CC4)c4ccccc43)c12 | 101 nM |
| O=C(c1cnccc1Oc1ccc2occc2c1)N1CCN(C2CC2)c2ccccc21 | 28 nM |
| O=C(c1cnccc1Oc1ccc2ncsc2c1)N1CCN(C2CC2)c2ccccc21 | 60 nM |
| CCOC(=O)/C=C/c1oc2ccc(Cl)c(Oc3ccncc3C(=O)N3CCN(C4CC4)c4ccccc43)c2c1C | 16 nM |
| O=C(c1cnccc1Oc1ccc2ccoc2c1)N1CCN(C2CC2)c2ccccc21 | 43 nM |
| Cc1noc2ccc(Oc3ccncc3C(=O)N3CCN(C4CC4)c4ccccc43)cc12 | 5.5 nM |
| Cc1coc2cc(Cl)c(Oc3ccncc3C(=O)N3CCN(C4CC4)c4ccccc43)cc12 | 0.92 nM |
| Cc1c(Br)oc2cc(Cl)c(Oc3ccncc3C(=O)N3CCN(C4CC4)c4ccccc43)cc12 | 66 nM |
| CCOC(=O)CCc1oc2ccc(Cl)c(Oc3ccncc3C(=O)N3CCN(C4CC4)c4ccccc43)c2c1C | 72 nM |
| CCOC(=O)CNC(=O)CCc1oc2ccc(Cl)c(Oc3ccncc3C(=O)N3CCN(C4CC4)c4ccccc43)c2c1C | 85 nM |
| COC(=O)CCc1coc2cc(Cl)c(Oc3ccncc3C(=O)N3CCN(C4CC4)c4ccccc43)cc12 | 82 nM |
| O=C(c1cnccc1Oc1cccc2ccccc12)N1CCN(C2CC2)c2ccccc21 | 66 nM |
| Cc1coc2ccc(Oc3ccncc3C(=O)N3CCN(C4CC4)c4ccccc43)cc12 | 2.4 nM |
| CCOC(=O)Cc1coc2cc(Cl)c(Oc3ccncc3C(=O)N3CCN(C4CC4)c4ccccc43)cc12 | 38 nM |

System: Mus musculus
Test: Antidiabetic activity in oral glucose loaded ICR mouse assessed as reduction of AUC (0 to 120 mins) of blood glucose level at 50 mg/kg, po by oral glucose tolerance test
Type: functional
Design: scale not given: the % may be the effect or the level left
Settings: not given

| SMILES | Activity |
| --- | --- |
| Cc1coc2cc(Cl)c(Oc3ccncc3C(=O)N3CCN(C4CC4)c4ccccc43)cc12 | 33% |

System: not listed separately
Test: Ratio of plasma concentration in ICR mouse plasma at 50 mg/kg, po after 3 hrs to EC50 for mouse TGR5 expressed in HEK293 cells
Type: ADME, organism-based
Design: dose 50 mg/kg, route oral
Settings: in vivo

| SMILES | Ratio |
| --- | --- |
| Cc1coc2cc(Cl)c(Oc3ccncc3C(=O)N3CCN(C4CC4)c4ccccc43)cc12 | 153 |

System: not listed separately
Test: Apparent permeability of the compound from apical to basolateral side of human Caco2 cells up to 95 mins by LC-MS/MS analysis
Settings: Caco-2

| SMILES | Papp A→B at 95 min |
| --- | --- |
| CCOC(=O)CNC(=O)/C=C/c1oc2ccc(Cl)c(Oc3ccncc3C(=O)N3CCN(C4CC4)c4ccccc43)c2c1C | 1.04 ×10⁻⁶ cm/s |
| Cc1coc2cc(Cl)c(Oc3ccncc3C(=O)N3CCN(C4CC4)c4ccccc43)cc12 | 2.1 ×10⁻⁶ cm/s |

System: Nucleic Acid
Test: Ratio of drug level in ICR mouse gallbladder at 50 mg/kg, po after 3 hrs to EC50 for mouse TGR5 expressed in HEK293 cells
Type: organism-based
Design: dose 50 mg/kg
Settings: not given

| SMILES | Ratio |
| --- | --- |
| Cc1coc2cc(Cl)c(Oc3ccncc3C(=O)N3CCN(C4CC4)c4ccccc43)cc12 | 891 |

System: not listed separately
Test: Drug level in ICR mouse bile at 50 mg/kg, po after 3 hrs by LC-MS/MS analysis
Type: ADME, organism-based
Design: dose 50 mg/kg, route oral
Settings: read-out: Drug uptake

| SMILES | concentration at 3 h |
| --- | --- |
| Cc1coc2cc(Cl)c(Oc3ccncc3C(=O)N3CCN(C4CC4)c4ccccc43)cc12 | 438 ng/mL |

System: not listed separately
Test: Efflux ratio of permeability from apical to basolateral side over basolateral to apical side of human Caco2 cells up to 95 mins by LC-MS/MS analysis
Settings: Caco-2

| SMILES | efflux ratio at 95 min |
| --- | --- |
| CCOC(=O)CNC(=O)/C=C/c1oc2ccc(Cl)c(Oc3ccncc3C(=O)N3CCN(C4CC4)c4ccccc43)c2c1C | 0.48 |
| Cc1coc2cc(Cl)c(Oc3ccncc3C(=O)N3CCN(C4CC4)c4ccccc43)cc12 | 0.71 |

System: not listed separately
Test: Drug level in ICR mouse blood at 50 mg/kg, po after 3 hrs by LC-MS/MS analysis
Type: ADME, organism-based
Design: dose 50 mg/kg, route oral
Settings: read-out: Drug uptake

| SMILES | concentration at 3 h |
| --- | --- |
| Cc1coc2cc(Cl)c(Oc3ccncc3C(=O)N3CCN(C4CC4)c4ccccc43)cc12 | 65 ng/mL |

Biological target: T1, G-protein coupled bile acid receptor 1
Test: Agonist activity at human TGR5
Settings: not given

| SMILES | EC50 |
| --- | --- |
| O=C(c1cnccc1Oc1ccc(O)cc1)N1CCN(C2CC2)c2ccccc21 | Not Active |

Same assay, conditions: read-out: EC50

| SMILES | EC50 |
| --- | --- |
| CC(=O)c1cc(C(=O)N2CCN(C3CC3)c3ccccc32)ccc1O | 2.3 nM |
| CC(=O)c1cccc(Oc2ccncc2C(=O)N2CCN(C3CC3)c3ccccc32)c1 | 5.5 nM |

Biological target: T3, G-protein coupled bile acid receptor 1 (Homo sapiens) (UniProt Q8TDU6)
T3 sequence (whole entry): T1 sequence (Q8TDU6 whole entry)
Test: Agonist activity at human TGR5 expressed in HEK293 cells co-expressing CRE at 1 uM after 5.5 hrs by luciferase reporter gene assay
Type: functional, cell-based
Settings: not given

| SMILES | Activity |
| --- | --- |
| O=C(O)c1coc2cc(Cl)c(Oc3ccncc3C(=O)N3CCN(C4CC4)c4ccccc43)cc12 | 38% |
